± gives the expanded uncertainty stated by the source.
Legend:
[1] = xn = mol fraction of the nth substance listed; details: 101.3 kPa, Liquid
[2] = relative permittivity at various frequencies (dimensionless); xn = mol fraction of the nth substance listed; details: 101.3 kPa, Liquid, HP4284A LCR Meter with HP16452A measuring cell

COCCOCCOCCOC [2,5,8,11-tetraoxadodecane] + CCCCCCCCC
Details | mass density [kg/m3] | relative permittivity
[1], 288.15 K, x1 = 0.0981 | 746.25 ± 1.1 | –
[1], 288.15 K, x1 = 0.1985 | 771.84 ± 0.99 | –
[1], 288.15 K, x1 = 0.2459 | 784.06 ± 0.96 | –
[1], 288.15 K, x1 = 0.2944 | 796.71 ± 0.93 | –
[1], 288.15 K, x1 = 0.3937 | 822.83 ± 0.86 | –
[1], 288.15 K, x1 = 0.4957 | 850.01 ± 0.8 | –
[1], 288.15 K, x1 = 0.5957 | 876.93 ± 0.73 | –
[1], 288.15 K, x1 = 0.6952 | 904 ± 0.68 | –
[1], 288.15 K, x1 = 0.7937 | 931.06 ± 0.63 | –
[1], 288.15 K, x1 = 0.9005 | 960.86 ± 0.59 | –
[1], 288.15 K, x1 = 0.9494 | 974.71 ± 0.58 | –
[1], 293.15 K, x1 = 0.1006 | 742.71 ± 1.1 | –
[1], 293.15 K, x1 = 0.1961 | 766.97 ± 1 | –
[1], 293.15 K, x1 = 0.2461 | 779.84 ± 0.97 | –
[1], 293.15 K, x1 = 0.2982 | 793.34 ± 0.94 | –
[1], 293.15 K, x1 = 0.3979 | 819.48 ± 0.87 | –
[1], 293.15 K, x1 = 0.4995 | 846.49 ± 0.81 | –
[1], 293.15 K, x1 = 0.5939 | 871.77 ± 0.75 | –
[1], 293.15 K, x1 = 0.6986 | 900.11 ± 0.69 | –
[1], 293.15 K, x1 = 0.7979 | 927.37 ± 0.64 | –
[1], 293.15 K, x1 = 0.9022 | 956.37 ± 0.6 | –
[1], 293.15 K, x1 = 0.95 | 969.87 ± 0.59 | –
[1], 298.15 K, x1 = 0.1006 | 738.55 ± 1.1 | –
[1], 298.15 K, x1 = 0.1961 | 762.73 ± 1 | –
[1], 298.15 K, x1 = 0.2461 | 775.58 ± 0.98 | –
[1], 298.15 K, x1 = 0.2982 | 789.07 ± 0.95 | –
[1], 298.15 K, x1 = 0.3979 | 815.17 ± 0.88 | –
[1], 298.15 K, x1 = 0.4995 | 842.12 ± 0.82 | –
[1], 298.15 K, x1 = 0.5939 | 867.4 ± 0.76 | –
[1], 298.15 K, x1 = 0.6986 | 895.69 ± 0.7 | –
[1], 298.15 K, x1 = 0.7979 | 922.84 ± 0.65 | –
[1], 298.15 K, x1 = 0.9022 | 951.81 ± 0.61 | –
[1], 298.15 K, x1 = 0.95 | 965.31 ± 0.6 | –
[1], 303.15 K, x1 = 0.0982 | 733.94 ± 1.1 | –
[1], 303.15 K, x1 = 0.2002 | 759.61 ± 1 | –
[1], 303.15 K, x1 = 0.2485 | 771.99 ± 0.99 | –
[1], 303.15 K, x1 = 0.2996 | 785.17 ± 0.96 | –
[1], 303.15 K, x1 = 0.3994 | 811.21 ± 0.89 | –
[1], 303.15 K, x1 = 0.495 | 836.5 ± 0.83 | –
[1], 303.15 K, x1 = 0.5989 | 864.2 ± 0.77 | –
[1], 303.15 K, x1 = 0.6998 | 891.41 ± 0.71 | –
[1], 303.15 K, x1 = 0.8005 | 918.9 ± 0.66 | –
[1], 303.15 K, x1 = 0.8999 | 946.47 ± 0.62 | –
[1], 303.15 K, x1 = 0.9499 | 960.53 ± 0.6 | –
[1], 308.15 K, x1 = 0.0977 | 729.91 ± 1.1 | –
[1], 308.15 K, x1 = 0.1975 | 754.98 ± 1 | –
[1], 308.15 K, x1 = 0.2469 | 767.58 ± 1 | –
[1], 308.15 K, x1 = 0.2964 | 780.35 ± 0.97 | –
[1], 308.15 K, x1 = 0.3944 | 805.91 ± 0.91 | –
[1], 308.15 K, x1 = 0.4956 | 832.62 ± 0.84 | –
[1], 308.15 K, x1 = 0.5976 | 859.8 ± 0.78 | –
[1], 308.15 K, x1 = 0.6967 | 886.45 ± 0.72 | –
[1], 308.15 K, x1 = 0.7937 | 912.91 ± 0.67 | –
[1], 308.15 K, x1 = 0.9021 | 942.91 ± 0.62 | –
[1], 308.15 K, x1 = 0.9497 | 956.38 ± 0.61 | –
[1], 318.15 K, x1 = 0.0998 | 722.15 ± 1.1 | –
[1], 318.15 K, x1 = 0.1975 | 746.41 ± 1.1 | –
[1], 318.15 K, x1 = 0.2484 | 759.29 ± 1 | –
[1], 318.15 K, x1 = 0.3021 | 773.02 ± 1 | –
[1], 318.15 K, x1 = 0.3883 | 795.32 ± 0.94 | –
[1], 318.15 K, x1 = 0.4998 | 824.5 ± 0.87 | –
[1], 318.15 K, x1 = 0.5991 | 850.79 ± 0.8 | –
[1], 318.15 K, x1 = 0.6998 | 877.63 ± 0.74 | –
[1], 318.15 K, x1 = 0.799 | 904.47 ± 0.69 | –
[1], 318.15 K, x1 = 0.9009 | 932.54 ± 0.64 | –
[1], 318.15 K, x1 = 0.9498 | 946.28 ± 0.63 | –
[1], 328.15 K, x1 = 0.0998 | 713.9 ± 1.2 | –
[1], 328.15 K, x1 = 0.1975 | 737.96 ± 1.1 | –
[1], 328.15 K, x1 = 0.2484 | 750.75 ± 1.1 | –
[1], 328.15 K, x1 = 0.3021 | 764.37 ± 1 | –
[1], 328.15 K, x1 = 0.3883 | 786.52 ± 0.96 | –
[1], 328.15 K, x1 = 0.4998 | 815.5 ± 0.89 | –
[1], 328.15 K, x1 = 0.5991 | 841.63 ± 0.83 | –
[1], 328.15 K, x1 = 0.6998 | 868.32 ± 0.76 | –
[1], 328.15 K, x1 = 0.799 | 894.99 ± 0.71 | –
[1], 328.15 K, x1 = 0.9009 | 922.95 ± 0.66 | –
[1], 328.15 K, x1 = 0.95 | 936.74 ± 0.64 | –
[2], 288.15 K, x1 = 0.0979 | – | 2.32 ± 0.05
[2], 288.15 K, x1 = 0.1997 | – | 2.72 ± 0.05
[2], 288.15 K, x1 = 0.2461 | – | 2.91 ± 0.06
[2], 288.15 K, x1 = 0.2965 | – | 3.15 ± 0.06
[2], 288.15 K, x1 = 0.3969 | – | 3.65 ± 0.07
[2], 288.15 K, x1 = 0.5043 | – | 4.24 ± 0.08
[2], 288.15 K, x1 = 0.6013 | – | 4.83 ± 0.1
[2], 288.15 K, x1 = 0.6972 | – | 5.48 ± 0.11
[2], 288.15 K, x1 = 0.7975 | – | 6.22 ± 0.12
[2], 288.15 K, x1 = 0.8996 | – | 7.02 ± 0.14
[2], 288.15 K, x1 = 0.9503 | – | 7.44 ± 0.15
[2], 293.15 K, x1 = 0.0979 | – | 2.3 ± 0.05
[2], 293.15 K, x1 = 0.1999 | – | 2.7 ± 0.05
[2], 293.15 K, x1 = 0.2483 | – | 2.9 ± 0.06
[2], 293.15 K, x1 = 0.2962 | – | 3.12 ± 0.06
[2], 293.15 K, x1 = 0.3968 | – | 3.61 ± 0.07
[2], 293.15 K, x1 = 0.5047 | – | 4.2 ± 0.08
[2], 293.15 K, x1 = 0.6015 | – | 4.78 ± 0.1
[2], 293.15 K, x1 = 0.6957 | – | 5.4 ± 0.11
[2], 293.15 K, x1 = 0.7975 | – | 6.11 ± 0.12
[2], 293.15 K, x1 = 0.8996 | – | 6.9 ± 0.14
[2], 293.15 K, x1 = 0.951 | – | 7.31 ± 0.15
[2], 298.15 K, x1 = 0.0975 | – | 2.3 ± 0.05
[2], 298.15 K, x1 = 0.2091 | – | 2.72 ± 0.05
[2], 298.15 K, x1 = 0.2569 | – | 2.92 ± 0.06
[2], 298.15 K, x1 = 0.2955 | – | 3.08 ± 0.06
[2], 298.15 K, x1 = 0.4035 | – | 3.61 ± 0.07
[2], 298.15 K, x1 = 0.5005 | – | 4.13 ± 0.08
[2], 298.15 K, x1 = 0.5944 | – | 4.67 ± 0.09
[2], 298.15 K, x1 = 0.6956 | – | 5.32 ± 0.11
[2], 298.15 K, x1 = 0.8007 | – | 6.04 ± 0.12
[2], 298.15 K, x1 = 0.901 | – | 6.79 ± 0.14
[2], 298.15 K, x1 = 0.9489 | – | 7.17 ± 0.14
[2], 303.15 K, x1 = 0.099 | – | 2.28 ± 0.05
[2], 303.15 K, x1 = 0.2015 | – | 2.66 ± 0.05
[2], 303.15 K, x1 = 0.2491 | – | 2.86 ± 0.06
[2], 303.15 K, x1 = 0.297 | – | 3.06 ± 0.06
[2], 303.15 K, x1 = 0.4001 | – | 3.56 ± 0.07
[2], 303.15 K, x1 = 0.4967 | – | 4.06 ± 0.08
[2], 303.15 K, x1 = 0.596 | – | 4.63 ± 0.09
[2], 303.15 K, x1 = 0.6976 | – | 5.27 ± 0.11
[2], 303.15 K, x1 = 0.7976 | – | 5.93 ± 0.12
[2], 303.15 K, x1 = 0.9012 | – | 6.69 ± 0.13
[2], 303.15 K, x1 = 0.9496 | – | 7.06 ± 0.14
[2], 308.15 K, x1 = 0.0979 | – | 2.26 ± 0.05
[2], 308.15 K, x1 = 0.1997 | – | 2.63 ± 0.05
[2], 308.15 K, x1 = 0.2461 | – | 2.81 ± 0.06
[2], 308.15 K, x1 = 0.2965 | – | 3.03 ± 0.06
[2], 308.15 K, x1 = 0.3969 | – | 3.49 ± 0.07
[2], 308.15 K, x1 = 0.5043 | – | 4.05 ± 0.08
[2], 308.15 K, x1 = 0.6013 | – | 4.6 ± 0.09
[2], 308.15 K, x1 = 0.6972 | – | 5.19 ± 0.1
[2], 308.15 K, x1 = 0.7975 | – | 5.85 ± 0.12
[2], 308.15 K, x1 = 0.8996 | – | 6.58 ± 0.13
[2], 308.15 K, x1 = 0.9503 | – | 6.96 ± 0.14
[2], 318.15 K, x1 = 0.0987 | – | 2.24 ± 0.05
[2], 318.15 K, x1 = 0.2016 | – | 2.6 ± 0.05
[2], 318.15 K, x1 = 0.248 | – | 2.78 ± 0.06
[2], 318.15 K, x1 = 0.2973 | – | 2.97 ± 0.06
[2], 318.15 K, x1 = 0.4 | – | 3.43 ± 0.07
[2], 318.15 K, x1 = 0.502 | – | 3.94 ± 0.08
[2], 318.15 K, x1 = 0.6006 | – | 4.48 ± 0.09
[2], 318.15 K, x1 = 0.6982 | – | 5.07 ± 0.1
[2], 318.15 K, x1 = 0.8053 | – | 5.75 ± 0.12
[2], 318.15 K, x1 = 0.9018 | – | 6.42 ± 0.13
[2], 318.15 K, x1 = 0.9503 | – | 6.75 ± 0.14
[2], 328.15 K, x1 = 0.1007 | – | 2.23 ± 0.04
[2], 328.15 K, x1 = 0.2003 | – | 2.57 ± 0.05
[2], 328.15 K, x1 = 0.2486 | – | 2.75 ± 0.06
[2], 328.15 K, x1 = 0.2973 | – | 2.95 ± 0.06
[2], 328.15 K, x1 = 0.3958 | – | 3.38 ± 0.07
[2], 328.15 K, x1 = 0.496 | – | 3.86 ± 0.08
[2], 328.15 K, x1 = 0.5967 | – | 4.38 ± 0.09
[2], 328.15 K, x1 = 0.6922 | – | 4.92 ± 0.1
[2], 328.15 K, x1 = 0.798 | – | 5.55 ± 0.11
[2], 328.15 K, x1 = 0.8997 | – | 6.21 ± 0.12
[2], 328.15 K, x1 = 0.9487 | – | 6.53 ± 0.13
